Measurements reported in ChEMBL document CHEMBL1158111, “Bohemamines from a marine-derived Streptomyces sp” (J Nat Prod, 2006).
Calls of active or inactive are those of the source. The calls are words filed in the database; no cut-off is given here.

test system: HCT-116; assay: Growth inhibition of human HCT116 cells; assay type: functional, cell-based

Compound | Activity
CC(C)=CC(=O)NC1=CC(=O)[C@]2(C)[C@@H]3O[C@@H]3[C@H](C)N12 | inactive
CC(C)=CC(=O)NC1=CC(=O)[C@]2(C)[C@H](O)C[C@H](C)N12 | inactive
CC(C)=CC(=O)NC1=CC(=O)[C@]2(C)C[C@H](O)[C@H](C)N12 | inactive
CC(C)=CC(=O)NC1=CC(=O)[C@]2(C)[C@H](O)[C@@H](Cl)[C@H](C)N12 | inactive
